Key:
Experiment in all cases: viability inhibition at highest dose (% inhibition); higher = more growth inhibition
BT-474 = conditions: 72 h
Experimental: (§1)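 Percent inhibition of viability (CellTiter-Glo, 72 h) at the highest tested concentration (D5), normalised to DMSO (0%) and 100 µM benzethonium chloride (100%). Resistant lines and the 'in 1µM tamoxifen' arms were tested in 1 µM 4-OH-tamoxifen.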

T-47D Tam1 = conditions: 4-OH-tamoxifen in medium 1 µM; 72 h
Experimental: as §1

ZR-75-1 Tam2 = conditions: 4-OH-tamoxifen in medium 1 µM; 72 h
Experimental: as §1

ZR-75-1 = conditions: 72 h
Experimental: as §1

ZR-75-1 Tam1 = conditions: 4-OH-tamoxifen in medium 1 µM; 72 h
Experimental: as §1

T-47D = conditions: 72 h
Experimental: as §1

MCF-7 = conditions: 72 h
Experimental: as §1

BT-474 Tam1 = conditions: 4-OH-tamoxifen in medium 1 µM; 72 h
Experimental: as §1

T-47D Tam2 = conditions: 4-OH-tamoxifen in medium 1 µM; 72 h
Experimental: as §1

MCF-7 Tam1 = conditions: 4-OH-tamoxifen in medium 1 µM; 72 h
Experimental: as §1

BT-474 Tam2 = conditions: 4-OH-tamoxifen in medium 1 µM; 72 h
Experimental: as §1

Row | Structure (SMILES) | viability inhibition at highest dose (BT-474; 4-OH-tamoxifen in medium 0 µM) | viability inhibition at highest dose (BT-474; 4-OH-tamoxifen in medium 1 µM) | viability inhibition at highest dose (T-47D Tam1) | viability inhibition at highest dose (ZR-75-1 Tam2) | viability inhibition at highest dose (ZR-75-1; 4-OH-tamoxifen in medium 0 µM) | viability inhibition at highest dose (ZR-75-1; 4-OH-tamoxifen in medium 1 µM) | viability inhibition at highest dose (ZR-75-1 Tam1) | viability inhibition at highest dose (T-47D; 4-OH-tamoxifen in medium 0 µM) | viability inhibition at highest dose (T-47D; 4-OH-tamoxifen in medium 1 µM) | viability inhibition at highest dose (MCF-7; 4-OH-tamoxifen in medium 0 µM) | viability inhibition at highest dose (MCF-7; 4-OH-tamoxifen in medium 1 µM) | viability inhibition at highest dose (BT-474 Tam1) | viability inhibition at highest dose (T-47D Tam2) | viability inhibition at highest dose (MCF-7 Tam1) | viability inhibition at highest dose (BT-474 Tam2)
1 | CC(=O)O[C@H]1C(=O)[C@@]2(C)[C@H]([C@H](OC(=O)c3ccccc3)[C@]3(O)C[C@H](OC(=O)[C@H](O)[C@@H](NC(=O)c4ccccc4)c4ccccc4)C(C)=C1C3(C)C)[C@]1(OC(C)=O)CO[C@@H]1C[C@@H]2O [Paclitaxel] (drug 1000 nM) | 42.7 | 55.7 | 26 | 0.492 | 26.9 | 4.99 | 4.53 | 47 | 15.8 | 28.8 | 25.8 | 35.2 | 35.9 | -17.1 | 25.5
2 | Cc1[nH]c2ccccc2c1CCNCc1ccc(/C=C/C(=O)NO)cc1 [Panobinostat] (drug 1000 nM) | 87.5 | 97.2 | 85.3 | 51.4 | 50.5 | 40.7 | 43.1 | 96.4 | 95.5 | 89.4 | 88.4 | 84.4 | 68.7 | 21.3 | 69.6
3 | C/C(=C\c1csc(C)n1)[C@@H]1C[C@@H]2O[C@]2(C)CCC[C@H](C)[C@H](O)[C@@H](C)C(=O)C(C)(C)[C@@H](O)CC(=O)O1 [Patupilone  (Epothilone B)] (drug 1000 nM) | 49.2 | 56.4 | 22 | 1.47 | 8.28 | -8.45 | 1.36 | 38.1 | 8.65 | 24.1 | 21.5 | 38.2 | 33.4 | -9.25 | 28
4 | Cc1ccc(Nc2nccc(N(C)c3ccc4c(C)n(C)nc4c3)n2)cc1S(N)(=O)=O [Pazopanib] (drug 10000 nM) | -2.15 | -6.21 | 4.97 | 10.8 | -3.01 | 11.1 | 6.13 | 12.7 | -6.23 | 8.65 | 16.4 | 23.6 | 23.6 | 1.65 | 7.37
5 | Nc1nc2[nH]cc(CCc3ccc(C(=O)N[C@@H](CCC(=O)O)C(=O)O)cc3)c2c(=O)[nH]1 [Pemetrexed] (drug 10000 nM) | -2.99 | -11.2 | -2.82 | -6.3 | -12.7 | -4.01 | 1.51 | -12.4 | 8.3 | -15.5 | 14.3 | -2.78 | 9.3 | -1.81 | 4.1
6 | OC[C@H]1O[C@@H](n2cnc3c2N=CNC[C@H]3O)C[C@@H]1O [Pentostatin] (drug 10000 nM) | 15.9 | 13.3 | 48 | 40.8 | 48.5 | 41.3 | 46.9 | 45.1 | 28.1 | 47.4 | 30.7 | 30.3 | 35.5 | 19.7 | 16
7 | CS(=O)(=O)N1CCN(Cc2cc3nc(-c4cccc5[nH]ncc45)nc(N4CCOCC4)c3s2)CC1 [Pictilisib (GDC-0941)] (drug 10000 nM) | 63.6 | 90.6 | 70.6 | 76.1 | 64.3 | 60.7 | 76.9 | 68.5 | 76.6 | 76.8 | 81.6 | 86.1 | 67.4 | 64.4 | 82.5
8 | CC[C@@H]1C(=O)OC[C@@H]1Cc1cncn1C [Pilocarpine] (drug 40000 nM) | -0.744 | -6.73 | -0.157 | -0.127 | -3.18 | -6.19 | 8.48 | -7.15 | -0.389 | -3.51 | 9.03 | 4.36 | 9.72 | -6.84 | 6.51
9 | O=C(CCBr)N1CCN(C(=O)CCBr)CC1 [Pipobroman] (drug 10000 nM) | -11.7 | -7.15 | 1.06 | -10.5 | -15 | -9.45 | 1.68 | -14.7 | -5.88 | -15.2 | 9.48 | -12.7 | 9.55 | -9.06 | -8.7
10 | c1cc(CN2CCCNCCNCCCNCC2)ccc1CN1CCCNCCNCCCNCC1 [Plerixafor] (drug 2500 nM) | 4.13 | -27.6 | 2.69 | 4.58 | -5.05 | 1.12 | 1.99 | -9.65 | -11.9 | -2.68 | 1.01 | 3.09 | 1.1 | -8.37 | 1.19
11 | CO[C@H](C(=O)[C@@H](O)[C@@H](C)O)[C@@H]1Cc2cc3cc(O[C@H]4C[C@@H](O[C@@H]5C[C@@H](O)[C@H](O)[C@@H](C)O5)[C@H](O)[C@@H](C)O4)c(C)c(O)c3c(O)c2C(=O)[C@H]1O[C@H]1C[C@@H](O[C@@H]2C[C@@H](O)[C@@H](O[C@@H]3C[C@](C)(O)[C@H](O)[C@@H](C)O3)[C@@H](C)O2)[C@H](O)[C@@H](C)O1 [Plicamycin  (Mithramycin A)] (drug 10000 nM) | 67.7 | 95 | 62 | 83.4 | 62.6 | 63.7 | 75.3 | 68.7 | 44.3 | 88.9 | 88.9 | 95.9 | 58.7 | 77.5 | 95.5
12 | C[C@]12C=CC(=O)C=C1CC[C@@H]1[C@@H]2[C@@H](O)C[C@@]2(C)[C@H]1CC[C@]2(O)C(=O)CO [Prednisolone] (drug 10000 nM) | -0.102 | -6.44 | 2 | 9.43 | -7.97 | 0.573 | -0.584 | -5.27 | -8.96 | 12 | 17.2 | -1.37 | 6.88 | 0.119 | -3.77
